Legend:
BxPC-3 cells [1] = assay: 3H-thymidine incorporation assay (cell growth); format: cell-based; conditions: Homo sapiens, 48 h, read-out: percentage of growth inhibition of BxPC-3 cells
Method: Cells (15×10^4/mL) were maintained in RPMI medium supplemented with 10% fetal bovine serum (FBS), […], 100 U/ml penicillin, and […] streptomycin solution at 37° C. in a 5% CO2 incubator. Cells were transferred to a freshly prepared medium twice weekly. 3H-thymidine incorporation assay was used to evaluate cell growth. BxPC-3 cells (5,000 cells/well) were incubated (37° C.) with CF102 (namodenoson) in different concentrations: 0.01 nM, 0.1 nM and 1 nM in a 96-well plate for 48 h. Each well was pulsed with 1 μCi 3H-thymidine for the last 24 h. The cells were harvested, and the 3H-thymidine uptake was determined in an LKB liquid scintillation counter (LKB).

BxPC-3 cells [2] = assay: Presto Blue cell growth inhibition assay; format: cell-based, human
Method: Cells (15×10^4/mL) were maintained in RPMI medium supplemented with 10% fetal bovine serum (FBS), […], 100 U/ml penicillin, and […] streptomycin solution at 37° C. in a 5% CO2 incubator. Cells were transferred to a freshly prepared medium twice weekly. For the tumor cell growth experiments, BxPC-3 cells (15×10^4/mL) were incubated in the culture medium with control, 5, 10, or 20 nM namodenoson in 96-well microtiter plates for 24 h at 37° C. in a 5% CO2 incubator, after which cell growth inhibition was determined using the Presto Blue assay (Thermo Fisher Scientific, Waltham, MA, USA) used as per the manufacturer's instructions. Experiments under the same conditions with 20 nM namodenoson were also conducted with and without 20 nM of the A3AR antagonist MRS1523 (diluted to the final concentration in RPMI medium).

BxPC-3 cells [3] = assay: BxPC-3 subcutaneous tumor growth in nude mice; format: in vivo, nude Balb/C mice; conditions: 10 μg/kg twice daily for 35 days (Day 22 to Day 57), by Day 57 from tumor inoculation
Method: Male nude Balb/C mice (Harlan Laboratories, Jerusalem, Israel), aged 2 months (mean weight, 25 g), received a subcutaneous flank injection of BxPC-3 cells (2.5×10^6). The mice were maintained on a standardized pelleted diet and supplied with tap water. […] Tumor width (W) and length (L) were measured twice weekly with a caliber, and tumor size was calculated (W^2×L/2).

BxPC-3 cells [4] = assay: Western blot analysis of regulatory protein expression; format: cell-based, human; conditions: 20 nM namodenoson, 24 h, vs. control
Method: Western blot analyses were performed using the same culture conditions as the Presto Blue experiments in 10 cm plates with 20 nM namodenoson or control. After incubation for 24 h at 37° C. in a 5% CO2 incubator, the cell samples were rinsed with ice-cold PBS and transferred to ice-cold RIPA buffer with 1× protease and phosphatase inhibitor cocktail for 20 min. Cell debris was removed using centrifugation at 4° C. for 10 min, at 7500×g. The supernatant was utilized for the Western blot analyses. Protein concentrations were determined using the NanoDrop assay (ThermoFisher Scientific, Waltham, MA, USA). Equal amounts of the sample (50 μg) were separated by SDS-PAGE, using […] (Schleicher & Schuell, Keene, NH, USA). Membranes were blocked with 1% bovine serum albumin and incubated with the relevant primary antibody (dilution 1:1000) for 24 h at 4° C. Blots were then washed and incubated with the secondary antibody for 1 h at room temperature. Bands were recorded using BCIP/NBT color development kit (Promega, Madison, WI, USA).

CNC(=O)[C@H]1O[C@@H](n2cnc3c(NCc4cccc(I)c4)nc(Cl)nc32)[C@H](O)[C@@H]1O [namodenoson, 2-chloro-N^6-(3-iodobenzyl)-adenosine-5′-N-methyl-uronamide]
inhibition at 10 pM (BxPC-3 cells [1]; 0.01 nM namodenoson): 27.9%
inhibition at 0.0001 µM (BxPC-3 cells [1]; 0.1 nM namodenoson): 53.7%
inhibition at 0.001 µM (BxPC-3 cells [1]; 1 nM namodenoson): 67.4%
cell growth, % of the control (BxPC-3 cells [2]; 20 nM namodenoson alone, 24 h): 45.0%+4.2 % of the control
cell growth, % of the control (BxPC-3 cells [2]; 20 nM namodenoson plus 20 nM MRS1523, 24 h): 81.1%+6.3 % of the control
inhibition at 0.005 µM (BxPC-3 cells [2]; Homo sapiens, BXPC-3, 5 nM, 24 h, mean±SE): 49.7%
inhibition at 0.01 µM (BxPC-3 cells [2]; Homo sapiens, BXPC-3, 10 nM, 24 h, mean±SE): 66.3%
inhibition at 0.02 µM (BxPC-3 cells [2]; Homo sapiens, BXPC-3, 20 nM, 24 h, mean±SE): 82.7%
inhibition of tumor growth vs. control (BxPC-3 cells [3]): 67.7%+15.2
A3AR protein expression level (BxPC-3 cells [4]): decrease
Bad expression (BxPC-3 cells [4]): upregulated
Bax expression (BxPC-3 cells [4]): upregulated
GSK-3β expression (BxPC-3 cells [4]): upregulation
NF-κB expression (BxPC-3 cells [4]): downregulated
PI3K expression (BxPC-3 cells [4]): downregulated
cyclin D1 expression level (BxPC-3 cells [4]): decrease
p-Akt expression (BxPC-3 cells [4]): downregulated
pERK 1/2 expression level (BxPC-3 cells [4]): decrease
pMEK 1/2 expression level (BxPC-3 cells [4]): decrease
pRaf expression level (BxPC-3 cells [4]): decrease
β-catenin expression level (BxPC-3 cells [4]): decrease

CCCOC(=O)c1c(-c2ccccc2)nc(CC)c(C(=O)SCC)c1CCC [MRS1523, reference compound]
cell growth, % of the control (BxPC-3 cells [2]; 20 nM MRS1523 alone, 24 h): 100.8%+11.1 % of the control

— patent US20260232715A1, “TREATMENT OF PANCREATIC CANCER” (CAN-FITE BIOPHARMA LTD., priority 2023, published 2026)
